Read-outs that look alike come from different tables or passages of the source. Values belong to the compound of their own block, whether it stands above or below them.
Key:
Format in all cases: cell-based
[1] = tested on: HCC827 cells (EGFR Exon19 del, non-small cell lung cancer cells); experiment: Cell viability assay (WST/CCK8), HCC827 cells; conditions: Homo sapiens, HCC827, 72 h, read-out: IC50 (half inhibitory concentration)
Summary of the method: (§1)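 Cells seeded at 3 000/well in RPMI1640 complete medium, dosed next day with compounds (top 10 μM, 3-fold, 10 points) for 72 h. Viability read with WST (CCK8) reagent; DMSO as negative control, EGFR TKIs as positive controls; IC50 determined.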

[2] = tested on: BT474 cells (HER2 positive breast cancer cells); experiment: Cell viability assay (CCK8), BT474 cells; conditions: Homo sapiens, BT-474, Table 10, BT474, 72 hours, read-out: IC50 (half inhibitory concentration)
Description: The cell lines with abnormal EGFR expression used are as follows: • HCC827 cells (EGFR Exon19 del, non-small cell lung cancer cells); • PC9 cells (EGFR Exon 19 del, non-small cell lung cancer cells); • PC9BracA1 (EGFR Exon 19 del+T790M, non-small cell lung cancer cells) • H1975 (EGFR Exon T790M+L858R mutation, non-small cell lung cancer cell line) • BT474 cells (HER2 positive breast cancer cells)
All of the half inhibitory concentrations (IC50) of these compounds of the present invention were determined with WST reagent from Fuyuan Biotec Company. The specific experiment procedures are as follows: Cancer cells were planted in 96-well-plate at the density of 3 000 cells per well with 100 μL RPMI1640 completed culture medium. In the next day, compounds with indicated concentrations were added to the cells, DMSO was used as the negative control and the EGFR TKIs were used to treat cells as the positive groups. After 72 hours drug treatment, cell viability was measured by using the WST reagent following the instructions. The growth inhibition curve of the compounds on cells were plotted by Prism GraphPad, and the compounds IC50 calculated from it.
The cell viability assays were taken to determine the anti-tumor activity of these indicated compounds in BT474 cells, which can overexpress HER2 protein. The cells were treated with the gradient concentration of these compounds (the maximum concentration: 10 μM; 3-fold dilution ratio, 10 concentration gradients) for 72 hours and then incubated with the CCK8 reagent to determine the cell viability.

[3] = tested on: PC9 cells (EGFR Exon 19 del, non-small cell lung cancer cells); experiment: Cell viability assay (WST/CCK8), PC9 cells; conditions: Homo sapiens, read-out: IC50 (half inhibitory concentration)
Summary of the method: as §1

[4] = HCC827 (Exon19 Del), 72 hours, WST (CCK8)
[5] = PC-9, PC9 (Exon19 Del), 72 hours, WST (CCK8)
[6] = Table 6, canertinib-based compounds, HCC827 (Exon19 Del), 72 hours, WST
[7] = PC-9, Table 6, canertinib-based compounds, PC9 (Exon19 Del), 72 hours, WST

Compound: COc1cc2ncnc(Nc3ccc(F)c(Cl)c3)c2cc1NC(=O)/C=C/CN1CCC(NC(=O)CCCCCSc2cccc3c2CN(C2CCC(=O)NC2=O)C3=O)CC1 (stereo not drawn) [SIAIS262114, (E)-N-(1-(4-((4-((3-chloro-4-fluorophenyl)amino)-7-methoxyquinazolin-6-yl)amino)-4-oxobut-2-en-1-yl)piperidin-4-yl)-6-((2-(2,6-dioxopiperidin-3-yl)-1-oxoisoindolin-4-yl)thio)hexanamide]
IC50 [1, 4]: 4 nM
IC50 [2]: 90 nM
IC50 [3, 5]: 11.9 nM

Compound: C=CC(=O)Nc1cc2c(Nc3ccc(F)c(Cl)c3)ncnc2cc1OCCCN1CCN(C(=O)CCCC(=O)N[C@H](C(=O)N2C[C@H](O)C[C@H]2C(=O)NCc2ccc(-c3scnc3C)cc2)C(C)(C)C)CC1 [SIAIS262128, (2S,4R)-1-((S)-2-(5-(4-(3-((6-acrylamido-4-((3-chloro-4-fluorophenyl)amino)quinazolin-7-yl)oxy)propyl)piperazin-1-yl)-5-oxopentanamido)-3,3-dimethylbutanoyl)-4-hydroxy-N-(4-(4-methylthiazol-5-yl)benzyl)pyrrolidine-2-carboxamide]
IC50 [1, 6]: 14.3 nM
IC50 [2]: 42.1 nM
IC50 [3, 7]: 15.9 nM

Compound: C=CC(=O)Nc1cc2c(Nc3ccc(F)c(Cl)c3)ncnc2cc1OCCCN1CCN(C(=O)CSc2cccc3c2CN(C2CCC(=O)NC2=O)C3=O)CC1 (stereo not drawn) [SIAIS262121, N-(4-((3-chloro-4-fluorophenyl)amino)-7-(3-(4-(2-((2-(2,6-dioxopiperidin-3-yl)-1-oxoisoindolin-4-yl)thio)acetyl)piperazin-1-yl)propoxy)quinazolin-6-yl)acrylamide]
IC50 [1, 6]: 9.3 nM
IC50 [2]: 5.3 nM
IC50 [3, 7]: 43.4 nM

Compound: COc1cc2ncnc(Nc3ccc(F)c(Cl)c3)c2cc1NC(=O)/C=C/CN1CCC(N2CCN(Cc3ccc(CNc4cccc5c4CN(C4CCC(=O)NC4=O)C5=O)cc3)CC2)CC1 (stereo not drawn) [SIAIS337024, (E)-N-(4-((3-chloro-4-fluorophenyl)amino)-7-methoxyquinazolin-6-yl)-4-(4-(4-(4-(((2-(2,6-dioxopiperidin-3-yl)-1-oxoisoindolin-4-yl)amino)methyl)benzyl)piperazin-1-yl)piperidin-1-yl)but-2-enamide]
IC50 [1, 4]: 1.1 nM
IC50 [2]: 51.5 nM
IC50 [3, 5]: 13 nM

Compound: C=CC(=O)N1CCC(Oc2cc3c(Nc4ccc(Cl)c(Cl)c4F)ncnc3cc2OC)CC1 [poziotinib, reference compound]
IC50 [1, 4]: 0.5 nM
IC50 ([1]; Table 3, poziotinib-based compounds, HCC827 (Exon19 Del), 72 hours, WST (CCK8)): 0.5 nM
IC50 [2]: < 0.1 nM
IC50 ([3]; PC-9, Table 3, poziotinib-based compounds, PC9 (Exon 19 Del), 72 hours, WST (CCK8)): < 0.1 nM

Compound: C=CC(=O)Nc1cc2c(Nc3ccc(F)c(Cl)c3)ncnc2cc1OCCCN1CCOCC1 [canertinib, reference compound]
IC50 [1]: 0.7 nM
IC50 [2]: 17.5 nM
IC50 ([3]; PC-9, 72 h): 0.9 nM

Compound: COc1cc2ncnc(Nc3ccc(F)c(Cl)c3)c2cc1NC(=O)/C=C/CN1CCN(C(=O)CCOCCNc2cccc3c2C(=O)N(C2CCC(=O)NC2=O)C3=O)CC1 (stereo not drawn) [SIAIS249046, (E)-N-(4-((3-chloro-4-fluorophenyl)amino)-7-methoxyquinazolin-6-yl)-4-(4-(3-(2-((2-(2,6-dioxopiperidin-3-yl)-1,3-dioxoisoindolin-4-yl)amino)ethoxy)propanoyl)piperazin-1-yl)but-2-enamide]
IC50 [1, 4]: 3.4 nM
IC50 [3, 5]: 57 nM

More lines, now with the values ahead:

IC50 [1, 4]: 16 nM
IC50 [2]: 484 nM
IC50 [3, 5]: 31.2 nM
Compound: COc1cc2ncnc(Nc3ccc(F)c(Cl)c3)c2cc1NC(=O)/C=C/CN1CCC(NCCCCC#Cc2cccc3c2CN(C2CCC(=O)NC2=O)C3=O)CC1 (stereo not drawn) [SIAIS262117, (E)-N-(4-((3-chloro-4-fluorophenyl)amino)-7-methoxyquinazolin-6-yl)-4-(4-((6-(2-(2,6-dioxopiperidin-3-yl)-1-oxoisoindolin-4-yl)hex-5-yn-1-yl)amino)piperidin-1-yl)but-2-enamide]

IC50 [1, 6]: 11.8 nM
IC50 [2]: 35.6 nM
IC50 [3, 7]: 29.7 nM
Compound: C=CC(=O)Nc1cc2c(Nc3ccc(F)c(Cl)c3)ncnc2cc1OCCCN1CCN(C(=O)CCC(=O)NCCOCCNc2cccc3c2C(=O)N(C2CCC(=O)NC2=O)C3=O)CC1 (stereo not drawn) [SIAIS249099, 4-(4-(3-((6-acrylamido-4-((3-chloro-4-fluorophenyl)amino)quinazolin-7-yl)oxy)propyl)piperazin-1-yl)-N-(2-(2-((2-(2,6-dioxopiperidin-3-yl)-1,3-dioxoisoindolin-4-yl)amino)ethoxy)ethyl)-4-oxobutanamide]

IC50 [2]: 1.85 nM
Compound: COc1cc2ncnc(Nc3ccc(F)c(Cl)c3)c2cc1NC(=O)/C=C/CN1CCC(N2CCN(CCCCCSc3cccc4c3CN(C3CCC(=O)NC3=O)C4=O)CC2)CC1 (stereo not drawn) [SIAIS262064, (E)-N-(4-((3-chloro-4-fluorophenyl)amino)-7-methoxyquinazolin-6-yl)-4-(4-(4-(5-((2-(2,6-dioxopiperidin-3-yl)-1-oxoisoindolin-4-yl)thio)pentyl)piperazin-1-yl)piperidin-1-yl)but-2-enamide]

IC50 [1, 6]: 25.2 nM
IC50 [2]: 3.8 nM
IC50 [3, 7]: 16 nM
Compound: C=CC(=O)Nc1cc2c(Nc3ccc(F)c(Cl)c3)ncnc2cc1OCCCN1CCN(C(=O)CCc2ccc(CCC(=O)N[C@H](C(=O)N3C[C@H](O)C[C@H]3C(=O)NCc3ccc(-c4scnc4C)cc3)C(C)(C)C)cc2)CC1 [SIAIS249102, (2S,4R)-1-((S)-2-(3-(4-(3-(4-(3-((6-acrylamido-4-((3-chloro-4-fluorophenyl)amino)quinazolin-7-yl)oxy)propyl)piperazin-1-yl)-3-oxopropyl)phenyl)propanamido)-3,3-dimethylbutanoyl)-4-hydroxy-N-(4-(4-methylthiazol-5-yl)benzyl)pyrrolidine-2-carboxamide]

IC50 [1, 4]: 6 nM
IC50 [2]: 52.5 nM
IC50 [3, 5]: 6.1 nM
Compound: COc1cc2ncnc(Nc3ccc(F)c(Cl)c3)c2cc1NC(=O)/C=C/CN1CCC(NC(=O)CCNc2cccc3c2C(=O)N(C2CCC(=O)NC2=O)C3=O)CC1 (stereo not drawn) [SIAIS249082, (E)-N-(4-((3-chloro-4-fluorophenyl)amino)-7-methoxyquinazolin-6-yl)-4-(4-(3-((2-(2,6-dioxopiperidin-3-yl)-1,3-dioxoisoindolin-4-yl)amino)propanamido)piperidin-1-yl)but-2-enamide]

IC50 [1, 4]: 20 nM
IC50 [2]: 12.3 nM
IC50 [3, 5]: 0.8 nM
Compound: COc1cc2ncnc(Nc3ccc(F)c(Cl)c3)c2cc1NC(=O)/C=C/CN1CCC(N)CC1 [SIAIS249077, (E)-4-(4-aminopiperidin-1-yl)-N-(4-((3-chloro-4-fluorophenyl)amino)-7-methoxyquinazolin-6-yl)but-2-enamide]

IC50 [1, 4]: 11 nM
IC50 [2]: 83 nM
IC50 [3, 5]: 3.3 nM
Compound: COc1cc2ncnc(Nc3ccc(F)c(Cl)c3)c2cc1NC(=O)/C=C/CN1CCC(NCCCC#Cc2cccc3c2CN(C2CCC(=O)NC2=O)C3=O)CC1 (stereo not drawn) [SIAIS262116, (E)-N-(4-((3-chloro-4-fluorophenyl)amino)-7-methoxyquinazolin-6-yl)-4-(4-((5-(2-(2,6-dioxopiperidin-3-yl)-1-oxoisoindolin-4-yl)pent-4-yn-1-yl)amino)piperidin-1-yl)but-2-enamide]

IC50 [1, 4]: 49 nM
IC50 [2]: 67.7 nM
IC50 [3, 5]: 3.9 nM
Compound: COc1cc2ncnc(Nc3ccc(F)c(Cl)c3)c2cc1NC(=O)/C=C/CN1CCC(NC(=O)CCCCSc2cccc3c2CN(C2CCC(=O)NC2=O)C3=O)CC1 (stereo not drawn) [SIAIS262113, (E)-N-(1-(4-((4-((3-chloro-4-fluorophenyl)amino)-7-methoxyquinazolin-6-yl)amino)-4-oxobut-2-en-1-yl)piperidin-4-yl)-5-((2-(2,6-dioxopiperidin-3-yl)-1-oxoisoindolin-4-yl)thio)pentanamide]

IC50 [1, 4]: 23 nM
IC50 [3, 5]: 167 nM
Compound: COc1cc2ncnc(Nc3ccc(F)c(Cl)c3)c2cc1NC(=O)/C=C/CN1CCN(C(=O)CSc2cccc3c2C(=O)N(C2CCC(=O)NC2=O)C3=O)CC1 (stereo not drawn) [SIAIS249034, (E)-N-(4-((3-chloro-4-fluorophenyl)amino)-7-methoxyquinazolin-6-yl)-4-(4-(2-((2-(2,6-dioxopiperidin-3-yl)-1,3-dioxoisoindolin-4-yl)thio)acetyl)piperazin-1-yl)but-2-enamide]

Reference: US12564638B2 (SHANGHAITECH UNIVERSITY, priority 2019, dated 2026)
